Here are results for one compound from US7582279B2, “Blood-pool carrier for lipophilic imaging agents” (The Board of Regents of the University of Michigan, priority 1994, dated 2009).

The test system of this test is VX2 tumors. Put plainly: CT of hepatic VX2 tumors, co-administration study. Format: in vivo, rabbits. To be noted: VX2 rabbit. The text has this: In a particularly advantageous embodiment of the invention, a hepatocyte-selective oil-in-water emulsion is co-administered with the blood-pool agent of the present invention. Liver-selective particulate agents (hepatocyte-selective or Kupffer cell-selective) clear rapidly from the blood and render the blood hypodense relative to surrounding liver tissue. It is very difficult to separate small tumors, which also appear as hypodense areas from small vasculature in the sub 5 mm size range. In order to compensate for this problem, DHOG-PEG (Example 1) and hepatocyte-selective DHOG-LE (Emulsion Example 6, non-radioactive form) were co-administered to rabbits bearing VX2 tumors.
Rabbits (mean weight 2.5 kg) were inoculated with VX2 carcinoma directly into the hepatic parenchyma to produce a total of 8 focal lesions (2-10 mm). Ten days later, the rabbits were scanned with multiple techniques including noncontrast, helical IV enhanced (600 mg I/kg iohexol), and 24 hours later using the iodinated microparticulate emulsion (200 mg I/kg). Tissue density measurements (HU) were made of liver, lesions, and blood (descending aorta). Tumor morphology was verified by gross pathologic examination.

The mark [1] stands for this setting: iohexol 600 mg I/kg, emulsion 200 mg I/kg.

As to `CC(=O)N(CC(O)CO)c1c(I)c(C(=O)NCC(O)CO)c(I)c(C(=O)NCC(O)CO)c1I` (stereo not drawn) [iohexol], the “lesion detection (sensitivity), Lesions < 1 cm” value stood at 49.3; the “lesion detection (sensitivity), Lesions > 1 cm” value is reported as 97.6; the “lesion detection (sensitivity), Overall” value was found to be 67.6; the liver-to-lesion difference worked out at 28.8. Moreover, under setting [1], the “enhancement of liver tissue” value is reported as “+66.8 HU” and the tumor enhancement result is reported as “+40.1 HU”.
